Results from patent publication US20250129054A1 (Terran Biosciences Inc., priority 2022, published 2025).

Assay: Serial tail vein bleed PK study in SD rats: methylone measured in plasma after IV or oral methylone or oral methylone prodrugs
Assay type: in vivo, Sprague Dawley rats
Settings: 10 mg/kg, rat
Procedure: A pharmacokinetic (PK) study was performed in three male Sprague-Dawley (SD) rats following intravenous (IV) and oral (PO) administration of methylone at 1 mg/kg (IV) and 10 mg/kg (PO) respectively, or test compounds (prodrugs of methylone) at 10 mg/kg (PO). Parent compound (methylone) was measured in plasma.
Samples were sent for method optimization and measurement of parent compound (methylone) via unique calibration lines and following acceptance QC's. Dose formulation concentrations were also measured, and PK parameters were determined (Cmax (ng/mL), Tmax (hr), Cl (ml/min/kg), Vdss (L/kg), t½(hr), AUC0-t (ng/mL*hr), AUC0-inf (ng/mL*hr), MIRT (hr), Bioavailability ([…]) where warranted) using WinNon Lin software. Data (including bioanalytical results and assay performance) were reported in a tabulated format.
Formulation for PO Administration: For PO dosing, the prodrug was formulated in 10% DMSO/20% PEG400/70% water to a concentration of 2 mg free metabolite material/mL. This provided a dose of 10 mg free metabolite/kg when the prodrug was administered PO in 5 mL/kg dosing volumes.
Formulation for IV administration: For IV dosing, rac-methylone was formulated as solution in saline to a concentration of 0.5 mg free metabolite material/mL. This provided a dose of 1 mg free metabolite/kg when administered IV in 2 mL/kg dosing volumes.
The pharmacokinetic properties of the synthesized methylone prodrugs after oral administration in a rat model were assessed. The concentration of methylone was measured in each rat at various sampling timepoints after IV or oral administration of rac-methylone or the synthesized methylone prodrugs to rats.
Dose formulations were made at equivalent concentrations of active compound (methylone) adjusted for molecular weight of the compounds. The synthesized methylone prodrugs or analogs were dosed at 10 mg/kg oral (PO) nominal dose. Nominal doses were used in PK parameter determinations. The parent compound (methylone) was dosed at 1 mg/kg intravenous (IV) and 10 mg/kg (PO).

[1] = 0.500 h after oral dosing of the prodrug, individual animals
[2] = 0.500 h after oral dosing of the prodrug, mean
[3] = 1.00 h after oral dosing of the prodrug, individual animals
[4] = 1.00 h after oral dosing of the prodrug, mean
[5] = 2.00 h after oral dosing of the prodrug, individual animals
[6] = 2.00 h after oral dosing of the prodrug, mean
[7] = 4.00 h after oral dosing of the prodrug, individual animals
[8] = 4.00 h after oral dosing of the prodrug, mean
[9] = 7.00 h after oral dosing of the prodrug, individual animals
[10] = 7.00 h after oral dosing of the prodrug, mean
[11] = 24.0 h after oral dosing of the prodrug, individual animals
[12] = 24.0 h after oral dosing of the prodrug, mean

Row | Structure (SMILES) | Plasma Concentrations of metabolite methylone [1] | Plasma Concentrations of metabolite methylone [2] | Plasma Concentrations of metabolite methylone [3] | Plasma Concentrations of metabolite methylone [4] | Plasma Concentrations of metabolite methylone [5] | Plasma Concentrations of metabolite methylone [6] | Plasma Concentrations of metabolite methylone [7] | Plasma Concentrations of metabolite methylone [8] | Plasma Concentrations of metabolite methylone [9] | Plasma Concentrations of metabolite methylone [10] | Plasma Concentrations of metabolite methylone [11] | Plasma Concentrations of metabolite methylone [12]
1 | COCCOC(=O)N(C)C(C)C(=O)c1ccc2c(c1)OCO2 (stereo not drawn) [PE, 2-Methoxyethyl N-[2-(1,3-benzodioxol-5-yl)-1-methyl-2-oxo-ethyl]-N-methyl-carbamate] | BLQ (Below Lower Limit of Quantification (0.5 ng/mL)) | BLQ (Below Lower Limit of Quantification (0.5 ng/mL)) | BLQ (Below Lower Limit of Quantification (0.5 ng/mL)) | BLQ (Below Lower Limit of Quantification (0.5 ng/mL)) | BLQ (Below Lower Limit of Quantification (0.5 ng/mL)) | BLQ (Below Lower Limit of Quantification (0.5 ng/mL)) | BLQ (Below Lower Limit of Quantification (0.5 ng/mL)) | BLQ (Below Lower Limit of Quantification (0.5 ng/mL)) | BLQ (Below Lower Limit of Quantification (0.5 ng/mL)) | BLQ (Below Lower Limit of Quantification (0.5 ng/mL)) | BLQ (Below Lower Limit of Quantification (0.5 ng/mL)) | BLQ (Below Lower Limit of Quantification (0.5 ng/mL))
2 | CC(C(=O)c1ccc2c(c1)OCO2)N(C)C(=O)OC(C)(C)C (stereo not drawn) [Compound 2A, tert-Butyl N-[2-(1,3-benzodioxol-5-yl)-1-methyl-2-oxo-ethyl]-N-methyl-carbamate] | BLQ (Below Lower Limit of Quantification (0.5 ng/mL)) | BLQ (Below Lower Limit of Quantification (0.5 ng/mL)) | BLQ (Below Lower Limit of Quantification (0.5 ng/mL)) | BLQ (Below Lower Limit of Quantification (0.5 ng/mL)) | BLQ (Below Lower Limit of Quantification (0.5 ng/mL)) | BLQ (Below Lower Limit of Quantification (0.5 ng/mL)) | BLQ (Below Lower Limit of Quantification (0.5 ng/mL)) | BLQ (Below Lower Limit of Quantification (0.5 ng/mL)) | BLQ (Below Lower Limit of Quantification (0.5 ng/mL)) | BLQ (Below Lower Limit of Quantification (0.5 ng/mL)) | BLQ (Below Lower Limit of Quantification (0.5 ng/mL)) | BLQ (Below Lower Limit of Quantification (0.5 ng/mL))
3 | CC(C(=O)c1ccc2c(c1)OCO2)N(C)C(=O)CCCC(=O)O (stereo not drawn) [Compound 8D, 4-{[2-(2H-1,3-Benzodioxol-5-yl)-1-methyl-2-oxo-ethyl]-N-methylcarbamoyl}butyric acid] | BLQ (Below Lower Limit of Quantification (0.5 ng/mL)) | BLQ (Below Lower Limit of Quantification (0.5 ng/mL)) | BLQ (Below Lower Limit of Quantification (0.5 ng/mL)) | BLQ (Below Lower Limit of Quantification (0.5 ng/mL)) | BLQ (Below Lower Limit of Quantification (0.5 ng/mL)) | BLQ (Below Lower Limit of Quantification (0.5 ng/mL)) | BLQ (Below Lower Limit of Quantification (0.5 ng/mL)) | BLQ (Below Lower Limit of Quantification (0.5 ng/mL)) | BLQ (Below Lower Limit of Quantification (0.5 ng/mL)) | BLQ (Below Lower Limit of Quantification (0.5 ng/mL)) | BLQ (Below Lower Limit of Quantification (0.5 ng/mL)) | BLQ (Below Lower Limit of Quantification (0.5 ng/mL))
4 | CC(C(=O)c1ccc2c(c1)OCO2)N(C)C(=O)CN(C)C (stereo not drawn) [Compound 3B, N-[2-(1,3-Benzodioxol-5-yl)-1-methyl-2-oxo-ethyl]-2-(dimethylamino)-N-methyl-acetamide] | BLQ (Below Lower Limit of Quantification (0.5 ng/mL)) | BLQ (Below Lower Limit of Quantification (0.5 ng/mL)) | BLQ (Below Lower Limit of Quantification (0.5 ng/mL)) | BLQ (Below Lower Limit of Quantification (0.5 ng/mL)) | BLQ (Below Lower Limit of Quantification (0.5 ng/mL)) | BLQ (Below Lower Limit of Quantification (0.5 ng/mL)) | BLQ (Below Lower Limit of Quantification (0.5 ng/mL)) | BLQ (Below Lower Limit of Quantification (0.5 ng/mL)) | BLQ (Below Lower Limit of Quantification (0.5 ng/mL)) | BLQ (Below Lower Limit of Quantification (0.5 ng/mL)) | BLQ (Below Lower Limit of Quantification (0.5 ng/mL)) | BLQ (Below Lower Limit of Quantification (0.5 ng/mL))
5 | CC(C(=O)c1ccc2c(c1)OCO2)N(C)C(=O)N1CCC(N2CCCCC2)CC1 (stereo not drawn) [Compound 9A, N-[2-(1,3-Benzodioxol-5-yl)-1-methyl-2-oxo-ethyl]-N-methyl-4-(1-piperidyl)piperidine-1-carboxamide] | BLQ (Below Lower Limit of Quantification (0.5 ng/mL)) | BLQ (Below Lower Limit of Quantification (0.5 ng/mL)) | BLQ (Below Lower Limit of Quantification (0.5 ng/mL)) | BLQ (Below Lower Limit of Quantification (0.5 ng/mL)) | BLQ (Below Lower Limit of Quantification (0.5 ng/mL)) | BLQ (Below Lower Limit of Quantification (0.5 ng/mL)) | BLQ (Below Lower Limit of Quantification (0.5 ng/mL)) | BLQ (Below Lower Limit of Quantification (0.5 ng/mL)) | BLQ (Below Lower Limit of Quantification (0.5 ng/mL)) | BLQ (Below Lower Limit of Quantification (0.5 ng/mL)) | BLQ (Below Lower Limit of Quantification (0.5 ng/mL)) | BLQ (Below Lower Limit of Quantification (0.5 ng/mL))
